Laboratory results published in patent US20100132066A1, “AGROBACTERIUM-MEDIATED METHOD FOR PRODUCING TRANSFORMED PLANT WITHOUT SELECTION STEP” (JAPAN TOBACCO INC., priority 2007, published 2010).

Assays:
[1] = system: Maize (variety: A188) immature embryos; experiment: Regeneration of whole plants from immature embryos cultured on coculture medium supplemented with various types of auxin (Example 1); format: cell-based; details: auxin 1.5 mg/l in coculture medium; for Regeneration rate (%): 7 days, no selection step, LSZ medium 30 mg/l hygromycin about 2 weeks, LBA4404 (pSB134), 25 immature embryos; for Vigor: mean score 0-3 of regenerated plants, 2 weeks on regeneration medium
Text: As used herein, the term “vigor” is intended to mean the growth vigor of a regenerated plant. The vigor of a plant may be measured by any known technique used in the art. For example, in the case of maize, scoring may be performed as follows for each transformed plant tissue after the regeneration step: transformed plant tissue showing no regeneration=0, transformed plant tissue giving a regenerated shoot whose maximum length is less than 5 mm=1, transformed plant tissue giving a regenerated shoot whose maximum length is 5 mm to less than 2 cm=2, and transformed plant tissue giving a regenerated shoot whose maximum length is 2 cm or longer=3, followed by calculating a mean value for all transformed plant tissues to thereby determine their vigor. The method of evaluation of vigor is not limited to this technique, and appropriate modifications may be made to well-known techniques, e.g., depending on the type of target to be evaluated.
25 immature embryos were provided for each test. The bar graph (vertical axis on the left side) represents the vigor of regenerated plants, the line graph (vertical axis on the right side) represents the regeneration rate (calculated by dividing the number of immature embryos showing regeneration in each test by the number of inoculated immature embryos), and the horizontal axis represents the type of auxin contained in a coculture medium. The auxin concentration in the coculture medium was set to 1.5 mg/l for each test. The vigor of regenerated plants was evaluated by scoring as follows: immature embryo showing no regeneration=0, immature embryo giving a regenerated shoot whose maximum length is less than 5 mm=1, immature embryo giving a regenerated shoot whose maximum length is 5 mm to less than 2 cm=2, and immature embryo giving a regenerated shoot whose maximum length is 2 cm or longer=3.
Maize (variety: A188) immature embryos (1.0 to 1 5 mm in size) at 7 to 14 days after pollination were aseptically collected and washed once with LS-inf liquid medium (Non-patent Publication No. 11), followed by pretreatment (thermal treatment at 46° C. for 3 minutes and centrifugation at 15,000 rpm for 10 minutes) to increase gene transfer efficiency. In LS-inf liquid medium containing 100 μM acetosyringone, Agrobacterium strain LBA4404 (pSB134) (Non-patent Publication No. 27) was suspended at about 1.0×10^9 cfu/ml to prepare an inoculum. The thermally-treated and centrifuged immature embryos were mixed with the inoculum, vortexed for 30 seconds, and then allowed to stand for 5 minutes at room temperature.
The number of immature embryos which regenerated into whole plants was determined, and the regenerated plants were examined for their vigor.

[2] = system: Immature embryos (variety: A188); experiment: Effect of dicamba and 2,4-D in coculture medium on regeneration (Example 2, FIG. 3); format: cell-based, Maize; details: for vigor of regenerated plants: mean score 0-3, coculture medium with this auxin alone (1.5 mg/l), selection step eliminated, FIG. 3
Text: FIG. 3 is a graph showing the effects of the dicamba/2,4-D ratio on the plant regeneration rate from cocultured immature embryos and on the vigor of regenerated plants. 38 immature embryos were provided for each test. The bar graph (vertical axis on the left side) represents the vigor of regenerated plants, the line graph (vertical axis on the right side) represents the regeneration rate (calculated by dividing the number of immature embryos showing regeneration in each test by the number of inoculated immature embryos), and the horizontal axis represents the percentage of dicamba contained in a coculture medium. The numerical values on the horizontal axis mean that auxin is contained in the coculture medium at the following ratios: 0 mg/l dicamba+1.5 mg/l 2,4-D (0% dicamba), 0.375 mg/l dicamba+1.125 mg/l 2,4-D (25% dicamba), 0.75 mg/l dicamba+0.75 mg/l 2,4-D (50% dicamba), 1.125 mg/l dicamba+0.375 mg/l 2,4-D (75% dicamba), and 1.5 mg/l dicamba+0 mg/l 2,4-D (100% dicamba). The vigor of regenerated plants was evaluated by scoring as follows: immature embryo showing no regeneration=0, immature embryo giving a regenerated shoot whose maximum length is less than 5 mm=1, immature embryo giving a regenerated shoot whose maximum length is 5 mm to less than 2 cm=2, and immature embryo giving a regenerated shoot whose maximum length is 2 cm or longer=3.
The vector U0009B shown in FIG. 2 and SEQ ID NO: 1 was constructed by adding necessary elements to a vector having pSB11 (Non-patent Publication No. 28) as a skeletal structure. […] The number of immature embryos which regenerated into whole plants was determined, and the regenerated plants were examined for their vigor.

[3] = system: Immature embryos (variety: A188); experiment: Transformation efficiency with regeneration medium containing blasticidin S (Example 4); format: cell-based, Maize; details: for Number of immature embryos Regenerated: about 2 weeks, 46 inoculated
[4] = higher percentage of dicamba (0-100%, rest 2,4-D, total 1.5 mg/l) in coculture medium
[5] = 2 mg/l blasticidin S in regeneration medium

Row | Compound | Regeneration rate (%) [1] | Vigor [1] | vigor of regenerated plants [2] | further results
1 | O=C(O)COc1cc(Cl)c(Cl)cc1Cl [2,4,5-T, 2,4,5-trichlorophenoxyacetic acid] | 84.0% | 1.5 | – | –
2 | O=C(O)COc1ccc(Cl)cc1Cl [2,4-D, 2,4-dichlorophenoxyacetic acid] | 84.0% | – | 0.3 | –
3 | COc1c(Cl)ccc(Cl)c1C(=O)O [Dicamba, 3,6-dichloro-o-anisic acid] | 100% | 1.5 | 2.3 | growth of the regenerated plants [2, 4]: more vigorous growth; regeneration rate [2, 4]: higher regeneration rate
4 | Nc1c(Cl)c(Cl)nc(C(=O)O)c1Cl [Picloram, 4-amino-3,5,6-trichloropicolinic acid] | 76.4% | 1.2 | – | –
5 | O=C(O)c1cc(I)cc(I)c1I [TIBA, 2,3,5-triiodobenzoic acid] | 4.0% | 0.1 | – | –
6 | CN(CC[C@H](N)CC(=O)N[C@H]1C=C[C@H](n2ccc(N)nc2=O)O[C@@H]1C(=O)O)C(=N)N [blasticidin, blasticidin S] | – | – | – | GUS− [3, 5]: 12; Number of immature embryos GUS+ (B) [3, 5]: 19; Striped, dotted (C) [3, 5]: 14; Number of immature embryos Regenerated [3, 5]: 45; Number of immature embryos Regenerated ([3]; 2 mg/l blasticidin S in regeneration medium, listed as blasticidin S): Almost all; B/A (%) ([3]; 2 mg/l blasticidin S, GUS+ per inoculated embryos): 41.3%; C/A (%) ([3]; 2 mg/l blasticidin S, striped/dotted per inoculated embryos): 3.04%
